Assay results reported in patent US9162988B2, “Therapeutic or prophylactic agent for allergic dermatitis” (Toray Industries, Inc., priority 2007, dated 2015).
Where a name gives a salt, the structure may show the parent alone.

tested on: Jurkat cells; test: Inhibitory effect on leukocyte functions: adhesion of Jurkat cells to ligand-expressing cells or ligand-immobilized plate; assay type: cell-based; details: Homo sapiens, 0.5 h, read-out: IC50 (concentration at which the number of adherent cells is reduced by 50%)
Protocol: Jurkat cells which are a cell line originated from human acute T cell lymphoma were allowed to react with BCECF-AM at 37° C. for 20 minutes to fluorescently label the cells. The fluorescently labelled Jurkat cells were allowed to react with ligand-expressing cells or with a ligand-immobilized plate at 37° C. for 30 minutes. After removing non-adherent cells by washing, 1% NP40 was added to lyse the adherent cells, and fluorescence intensity was measured with Cytofluor 2300 (Millipore). From the obtained fluorescence intensity, the number of adherent cells was calculated. Each test compound was reacted with the Jurkat cells before the beginning of the adhesion reaction. In Table 18, the IC50 of each compound (i.e. the concentration at which the number of adherent cells is reduced by 50%) is shown.

SMILES | IC50 [nM]
CC(C)CN(c1ccc(/C=C/CC(NC(=O)c2c(Cl)cccc2Cl)C(=O)O)cc1)c1ncccn1 (centres unmarked) [Example 55, (E)-2-(2,6-Dichlorobenzamido)-5-[4-(isobutyl-pyrimidin-2-ylamino)phenyl]pent-4-enoic acid sodium salt] | 420
O=C(NC(C/C=C/c1ccc(N(CC2CC2)c2ncccn2)cc1)C(=O)O)c1c(Cl)cccc1Cl (centres unmarked) [Example 53, (E)-5-[4-(Cyclopropylmethyl-pyrimidin-2-ylamino)phenyl]-2-(2,6-dichlorobenzamido)pent-4-enoic acid sodium salt] | 120
CCCCN(c1ccc(/C=C/CC(NC(=O)c2c(Cl)cccc2Cl)C(=O)O)cc1)c1ncccn1 (centres unmarked) [Example 37, (E)-5-(4-Butyl-pyrimidin-2-yl-amino)-phenyl]-2-(2,6-dichlorobenzamido)-pent-4-enoic acid sodium salt] | 160

tested on: BLAB/c mouse; test: Inhibitory effect on skin swelling response in mouse allergic dermatitis model; assay type: in vivo; details: IgE anti-DNP sensitized mouse, DNFB-induced; 50 mg/kg orally before the induction; 24 hours after administration
Protocol: This method was carried out in accordance with the literature “Inflamm. Res., 47, 506-511 (1998)”.
To each BLAB/c mouse (female, 7 weeks old, JAPAN CHARLES RIVER), mouse IgE anti-DNP antibody (2.5 mg/kg, SEIKAGAKU CORPORATION) was intravenously administered to passively sensitize the mouse. Twenty four hours later, 20 μL of 0.38% 2,4-dinitrofluorobenzene (DNFB, SIGMA) dissolved in acetone:olive oil (4:1) was applied to the auricle of the sensitized mouse to induce inflammation. The thickness of the auricle was measured with time till 24 hours after the induction with Digimatic Indicator (Mitutoyo), and the ear swelling ratio was calculated according to the following equation: Ear Swelling Ratio (%)=(A−B)/B×100
A: Thickness of the right auricle after the induction
B: Thickness of the right auricle before the induction
Each test compound was dissolved in phosphate buffered saline and orally administered at a dose of 50 mg/kg before the induction.

SMILES | Inhibition ratio of the ear swelling (swelling response of the auricle) [%]
CN(c1ccc(/C=C/C[C@H](NC(=O)c2c(Cl)cccc2Cl)C(=O)[O-])cc1)c1ncccn1.[Na+] [Example 81, (S,E)-2-(2,6-Dichlorobenzamido)-5-[4-(methyl-pyrimidin-2-ylamino)phenyl]pent-4-enoic acid sodium salt] | 97.9
CC(C)N(c1ccc(/C=C/C[C@H](NC(=O)c2c(Cl)cccc2Cl)C(=O)[O-])cc1)c1ncccn1.[Na+] [Example 84, (S,E)-2-(2,6-Dichlorobenzamido)-5-[4-(isopropyl-pyrimidin-2-ylamino)phenyl]pent-4-enoic acid sodium salt] | 66.9
COC1(c2ccc(/C=C/C[C@H](NC(=O)c3c(Cl)cccc3Cl)C(=O)O)cc2)CCOCC1 [Example 77, (S,E)-2-(2,6-Dichlorobenzamido)-5-[4-(4-methoxytetrahydropyran-4-yl)-phenyl]pent-4-enoic acid] | 85.8
CC(C)N(c1ccc(/C=C/CC(NC(=O)c2c(Cl)cccc2Cl)C(=O)O)cc1)c1ncccn1 (centres unmarked) [Example 28, (E)-2-(2,6-Dichlorobenzamido)-5-[4-(isopropyl-pyrimidin-2-ylamino)phenyl]pent-4-enoic acid] | 98.5
COC1(c2ccc(/C=C/C[C@H](NC(=O)c3c(Cl)cccc3Cl)C(=O)[O-])cc2)CCOCC1.[Na+] [Example 78, (S,E)-2-(2,6-Dichlorobenzamido)-5-[4-(4-methoxytetrahydropyran-4-yl)-phenyl]pent-4-enoic acid sodium salt] | 62.5
CCOC1(c2ccc(/C=C/CC(NC(=O)c3c(Cl)cccc3Cl)C(=O)O)cc2)CCOCC1 (centres unmarked) [Example 6, (E)-2-(2,6-Dichlorobenzamido)-5-[4-(4-ethoxytetrahydropyran-4-yl)-phenyl]pent-4-enoic acid] | 91.2
CC(C)N(c1ccc(/C=C/C[C@H](NC(=O)c2c(Cl)cccc2Cl)C(=O)O)cc1)c1ncccn1 [Example 83, (S,E)-2-(2,6-Dichlorobenzamido)-5-[4-(isopropyl-pyrimidin-2-ylamino)phenyl]pent-4-enoic acid] | 57.4
COC1(c2ccc(/C=C/CC(NC(=O)c3c(Cl)cccc3Cl)C(=O)O)cc2)CCOCC1 (centres unmarked) [Example 4, (E)-2-(2,6-Dichlorobenzamido)-5-[4-(4-methoxytetrahydropyran-4-yl)-phenyl]pent-4-enoic acid] | 79.8
CN(c1ccc(/C=C/CC(NC(=O)c2c(Cl)cccc2Cl)C(=O)O)cc1)c1ncccn1 (centres unmarked) [Example 22, (E)-2-(2,6-Dichlorobenzamido)-5-[4-(methyl-pyrimidin-2-ylamino)phenyl]pent-4-enoic acid] | 84.7
CN(c1ccc(/C=C/C[C@H](NC(=O)c2c(Cl)cccc2Cl)C(=O)O)cc1)c1ncccn1 [Example 80, (S,E)-2-(2,6-Dichlorobenzamido)-5-[4-(methyl-pyrimidin-2-ylamino)phenyl]pent-4-enoic acid] | 86.3
COCCOc1ccc(/C=C/CC(NC(=O)c2ccc(CNS(=O)(=O)c3cc(Cl)cc(Cl)c3)cc2)C(=O)[O-])cc1.[Na+] (centres unmarked) [(XXII), (E)-2-(4-((3,5-dichlorophenylsulfonamide)methyl)benzamide)-5-(4-(2-methoxyethoxy)phenyl)pent-4-enoic acid sodium salt, reference compound] | 2.3
